The results in this text go back to patent publication US20230257366A1, “SULFUR-CONTAINING ISOINDOLINE DERIVATIVE, AND PREPARATION METHOD THEREFOR AND MEDICAL USE THEREOF” (JIANGSU HENGRUI PHARMACEUTICALS CO., LTD., priority 2020, published 2023).

Structures are written as SMILES.

Data set [1] has as its system NCI-H929 xenograft tumor. The data set can be described thus: Pharmacodynamic test: NCI-H929 xenograft tumor in CB-17 SCID mice. It counts as in vivo. The protocol: This experiment was performed to evaluate the inhibition effect of the compound of Example 6 and the control example CC-92480 on the growth of human multiple myeloma cell NCI-H929 xenograft tumor in CB-17 SCID mice.
Compound of Example 6; control example CC-92480 (see compound 2 of WO2019014100A1, synthesized according to the method disclosed therein)
Solutions of the compound of Example 6 and the control example CC-92480 were prepared with 5% DMSO+20% PEG400+70% (10% TPGS)+5% (1% HPMC K100LV).
Thirty CB-17 SCID female mice, purchased from Beijing Vital River Laboratory Animal Technology Co., Ltd. (certificate No. 20170011006049, SCXK (Shanghai) 2017-0011), weighing about 19 g at the time of purchase, were bred at 5 mice/cage (in 12/12 hour light/dark cycle, at a constant temperature of 23±1° C. and humidity of 50%-60%) and had free access to food and water.
After adaptive feeding, the CB-17 SCID mice were grouped as follows:
NCI-H929 cells in a logarithmic growth phase were inoculated subcutaneously into the right flank of 30 female CB-17 SCID mice at 5×10^6 cells/mouse/100 μL (containing 50 μL of Matrigel). After 10 days, when the tumor volume of the tumor-bearing mice reached about 200 mm^3, the mice were randomly divided into 3 groups according to the tumor volume and body weight: vehicle control group, CC-92480-1 mpk, compound of Example 6-1 mpk, with 7 mice in each group. The day of grouping was set as Day 0 (D0), and intragastric administration was performed once a day for 11 days (Table 2). For the tumor-bearing mice, the tumor volume was measured with a vernier caliper and the body weight was measured with a balance twice a week, and the data were recorded.
All data were plotted and statistically analyzed using Excel and GraphPad Prism 5 software.
The tumor volume (V) was calculated as follows: V=½×a×b^2, where a and b represent length and width, respectively.
The relative tumor proliferation rate T/C (%)=(T−T0)/(C−C0)×100(%), where T and C are the tumor volume of animals at the end of the experiment in the treatment group and control group, respectively; T0 and C0 are the tumor volume of animals at the beginning of the experiment in the treatment group and control group, respectively.
Tumor growth inhibition TGI (%)=1−T/C (%), and when TGI (%) exceeds 100%, no specific value will be shown, and it is expressed only by >100%.
Tumor regression (%)=[(T0−T)/T0]×100(%).

A short description of data set [2]: Pharmacokinetic evaluation in mice after intragastric administration (LC/MS/MS). Conditions: female, mouse, in vivo, po, 2 mg/kg. It counts as in vivo. The protocol:
The drug concentration in the plasma of the test animals (mice) at different time points after intragastric administration of the compound of Example 6 and the control example CC-92480 was determined by an LC/MS/MS method. The pharmacokinetic behavior of the compound of the present disclosure in mice was studied and its pharmacokinetic profile was evaluated.
(§1) Compound of Example 6 and control example CC-92480.
Eighteen mice, female, purchased from Beijing Vital River Laboratory Animal Technology Co., Ltd., with animal production license number of SCXK (Shanghai) 2017-0005.
A certain amount of compound of Example 6 was weighed, dissolved by adding 5% by volume of DMSO and 5% Tween 80 (Shanghai Titan Scientific Co., Ltd.), and then prepared into a 0.1 mg/mL clear solution by adding 90% normal saline.
A certain amount of the control example CC-92480 was weighed, dissolved by adding 5% by volume of DMSO and 5% Tween 80 (Shanghai Titan Scientific Co., Ltd.), and then prepared into a 0.1 mg/mL clear solution by adding 90% normal saline.
Nine mice were intragastrically administered with the compound of Example 6 at a dose of 2 mg/kg and at a volume of 0.2 mL/10 g.
Nine mice were intragastrically administered with the control example CC-92480 at a dose of 2 mg/kg and at a volume of 0.2 mL/10 g.
Mice were intragastrically administered with the compound of Example 6 and the control example CC-92480, and 0.2 mL of blood was collected before the administration and 0.25 h, 0.5 h, 1.0 h, 2.0 h, 4.0 h, 6.0 h, 8.0 h, 11.0 h and 24.0 h after the administration (3 animals at each time point), placed in EDTA-K2 anticoagulation tubes, and centrifuged at 10,000 rpm for 1 min(4° C.). Plasma was separated within 1 h, and stored at −20° C. for testing. The process from blood collection to centrifugation was performed under an ice bath.
The content of the test compounds at different concentrations in mouse plasma after the administration was determined: 25 μL of mouse plasma at each time point after the administration was mixed with 50 μL (100 ng/mL) of internal standard solution camptothecin (National Institutes for Drug Control) and 175 μL of acetonitrile. The mixture was vortexed for 5 min and centrifuged for 10 min (3700 rpm/min), and 1 μL of the supernatant of the plasma sample was taken for LC/MS/MS assay (API4000 triple quadrupole tandem mass spectrometer, Applied Biosystems, USA; Shimadzu, LC-30AD ultra high performance liquid chromatography system, Shimadzu, Japan).

Data set [3] can be described thus: Plasma stability in monkey plasma (LC-MS/MS). It counts as in vitro ADME. The settings on record: monkey, plasma. On the procedure:
The stability of the compound of Example 6 and the control example CC-92480 after incubation in cryopreserved monkey plasma at 37° C. for 0 min, 15 min, 30 min, 60 min, 120 min, 180 min and 240 min was determined quantitatively by LC-MS/MS.
as §1
Monkey plasma was purchased from Shanghai Medicilon Inc.
A certain amount of the compound of Example 6 was weighed and prepared with DMSO to obtain a 30 mM stock solution. A certain volume of the stock solution was diluted into a solution I at a concentration of 1600 μM with DMSO; and a certain volume of the solution I at 1600 μM was diluted with 50% methanol to obtain a working solution II at a concentration of 16 μM. A 30 mM stock solution, a 1600 μM solution I′, and a 16 μM working solution II′ of CC-92480 were prepared as described above.
5 μL of the working solutions at 16 μM of the compound of Example 6 and the control example CC-92480 were each added to 75 μL of plasma to make the final concentration of the compounds of 1 μM. The samples were incubated under a 37° C. water bath for 0 min, 15 min, 30 min, 60 min, 90 min, 120 min, and 180 min. […] The supernatant was analyzed by LC-MS with a sample injection volume of 2 μL.

As usually defined, the AUC is concentration integrated over time. As usually defined, the CL/F is clearance divided by bioavailability, as obtained after extravascular dosing. For orientation: Cmax means the peak of the concentration-time curve. By MRT is commonly meant the average time that molecules of a dose stay in the body. As usually defined, the Vd/F is the volume of distribution divided by bioavailability. By half-life is commonly meant the time needed for the level to fall by half in the phase considered. With `N#Cc1ccc(N2CCN(Cc3ccc(COc4cccc5c4CN([C@H]4CCC(=O)NC4=O)C5=O)cc3)CC2)c(F)c1` [CC-92480, reference compound], the “Mean tumor volume D0” value in data set [1] (1 mg/kg qd, baseline at day of grouping (D0), n=7) stood at 157.2 mm^3. Besides, in data set [1] (1 mg/kg qd/11d po), the “Number of remaining animals/group” value is given as 7/7. Further, the “% tumor regression D11” value in data set [1] (1 mg/kg qd/11d po (i.g.), D11) was determined as 34%. In addition, the “Mean tumor volume D11” value in data set [1] (1 mg/kg qd/11d po (i.g.), D11, n=7) stood at 103.6 mm^3. In data set [2], the AUC worked out at 1940 ng·h/mL, the CL/F is 17.2 mL/min/kg, the concentration peaked (Cmax) at 692 ng/mL and the MRT is 2.3 h. In data set [2], this compound had a Vd/F of 1.96 L/kg and a half-life of 1.3 h. In addition, the half-life at 1 µM in data set [3] came to 3.32 h.
